{"source": "patent US8940724B2", "about": "“Quinoline derivitives and their uses” (Amgen Inc., priority 2009, dated 2015)"}
{"molecular_target": "T1, PI3Kδ (Homo sapiens, UniProt O00329)", "T1 construct": "Full length p110 subunits of PI3k α, β and δ, N-terminally labeled with polyHis tag; polyHis (N); made in house; host or cells: Sf9 insect cells (baculovirus)", "T1 sequence (O00329 whole entry)": "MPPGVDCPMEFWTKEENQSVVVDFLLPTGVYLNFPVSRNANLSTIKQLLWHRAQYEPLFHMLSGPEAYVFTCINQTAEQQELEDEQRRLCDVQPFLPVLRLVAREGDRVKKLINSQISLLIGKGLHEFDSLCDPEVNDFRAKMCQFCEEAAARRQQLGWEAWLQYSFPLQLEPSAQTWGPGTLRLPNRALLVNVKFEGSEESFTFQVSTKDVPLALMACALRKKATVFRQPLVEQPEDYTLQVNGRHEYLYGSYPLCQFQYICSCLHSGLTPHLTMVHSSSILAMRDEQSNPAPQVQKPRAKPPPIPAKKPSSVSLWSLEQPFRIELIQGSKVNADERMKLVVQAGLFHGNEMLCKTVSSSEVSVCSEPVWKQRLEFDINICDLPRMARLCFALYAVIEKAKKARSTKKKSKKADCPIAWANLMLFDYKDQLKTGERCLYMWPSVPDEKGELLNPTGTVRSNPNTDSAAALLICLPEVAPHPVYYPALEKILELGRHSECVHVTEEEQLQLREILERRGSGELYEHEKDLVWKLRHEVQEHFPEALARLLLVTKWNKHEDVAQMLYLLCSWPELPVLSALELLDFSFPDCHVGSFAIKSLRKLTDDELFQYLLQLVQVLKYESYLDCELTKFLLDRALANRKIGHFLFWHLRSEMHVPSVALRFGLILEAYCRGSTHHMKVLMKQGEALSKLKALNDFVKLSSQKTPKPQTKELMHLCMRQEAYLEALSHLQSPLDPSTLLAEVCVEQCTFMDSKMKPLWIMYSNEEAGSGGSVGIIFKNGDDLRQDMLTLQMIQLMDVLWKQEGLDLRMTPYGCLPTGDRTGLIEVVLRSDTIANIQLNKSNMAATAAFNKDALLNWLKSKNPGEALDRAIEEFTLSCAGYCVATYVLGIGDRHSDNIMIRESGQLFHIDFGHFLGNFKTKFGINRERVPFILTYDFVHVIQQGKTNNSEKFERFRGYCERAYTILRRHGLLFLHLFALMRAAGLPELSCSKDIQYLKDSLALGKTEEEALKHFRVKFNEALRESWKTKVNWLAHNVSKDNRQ", "T1 sequence (P27986 whole entry partner)": "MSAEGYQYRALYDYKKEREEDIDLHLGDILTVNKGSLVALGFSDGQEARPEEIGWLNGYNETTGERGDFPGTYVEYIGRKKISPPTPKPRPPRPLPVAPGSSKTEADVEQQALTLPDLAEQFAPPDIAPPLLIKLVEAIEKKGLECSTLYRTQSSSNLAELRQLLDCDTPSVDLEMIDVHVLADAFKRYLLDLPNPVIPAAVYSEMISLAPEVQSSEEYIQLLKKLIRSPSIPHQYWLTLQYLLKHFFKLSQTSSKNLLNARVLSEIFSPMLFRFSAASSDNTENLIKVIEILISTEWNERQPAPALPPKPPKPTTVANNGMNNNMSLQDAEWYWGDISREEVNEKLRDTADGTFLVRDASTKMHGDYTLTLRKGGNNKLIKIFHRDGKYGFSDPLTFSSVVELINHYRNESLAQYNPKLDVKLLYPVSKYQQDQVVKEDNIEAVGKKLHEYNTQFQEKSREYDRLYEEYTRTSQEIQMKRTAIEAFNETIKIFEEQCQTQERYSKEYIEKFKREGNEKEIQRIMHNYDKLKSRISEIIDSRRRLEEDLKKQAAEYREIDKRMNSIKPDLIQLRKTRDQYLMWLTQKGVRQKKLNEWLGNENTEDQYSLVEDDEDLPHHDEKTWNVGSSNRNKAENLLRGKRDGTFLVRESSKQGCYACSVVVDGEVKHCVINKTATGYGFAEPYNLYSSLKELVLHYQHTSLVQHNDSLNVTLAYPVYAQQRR", "assay": "PI3Kδ Alphascreen assay", "type": "biochemical", "units": {"Ki": "nM"}}
{"smiles": "CC(=O)c1ccc(S(C)(=O)=O)c(-c2nc3cc(F)cc(F)c3c(Nc3cncc(N4CCOCC4)c3)c2C)c1", "note": "[1-(3-(5,7-difluoro-3-methyl-4-((5-(4-morpholinyl)-3-pyridinyl)-amino)-2-quinolinyl)-4-(methylsulfonyl)phenyl)ethanone]", "Ki": 2.18}
{"smiles": "Cc1c(N2CCC2=O)nc2cc(F)cc(F)c2c1Nc1cncc(N2CCOCC2)c1", "note": "[1-(5,7-difluoro-3-methyl-4-((5-(4-morpholinyl)-3-pyridinyl)-amino)-2-quinolinyl)-2-azetidinone]", "Ki": 27.2}
{"smiles": "Cc1c(N2CCCCC2=O)nc2cc(F)cc(F)c2c1Nc1cncc(N2CCOCC2)c1", "note": "[1-(5,7-difluoro-3-methyl-4-((5-(4-morpholinyl)-3-pyridinyl)-amino)-2-quinolinyl)-2-piperidinone]", "Ki": 203}
{"smiles": "Cc1c(N2CC(C)(C)CC2=O)nc2cc(F)cc(F)c2c1Nc1cncc(N2CCOCC2)c1", "note": "[1-(5,7-difluoro-3-methyl-4-((5-(4-morpholinyl)-3-pyridinyl)-amino)-2-quinolinyl)-4,4-dimethyl-2-pyrrolidinone]", "Ki": 21.4}
{"smiles": "Cc1c(N2CC(C)(C)CCC2=O)nc2cc(F)cc(F)c2c1Nc1cncc(N2CCOCC2)c1", "note": "[1-(5,7-difluoro-3-methyl-4-((5-(4-morpholinyl)-3-pyridinyl)-amino)-2-quinolinyl)-5,5-dimethyl-2-piperidinone]", "Ki": 38.6}
{"smiles": "Cc1c(N2CCC[C@@H]2C(=O)O)nc2cc(F)cc(F)c2c1Nc1cncc(N2CCOCC2)c1", "note": "[1-(5,7-difluoro-3-methyl-4-((5-(4-morpholinyl)-3-pyridinyl)-amino)-2-quinolinyl)-D-proline]", "Ki": 59.9}
{"smiles": "Cc1c(N2CCC[C@H]2C(=O)O)nc2cc(F)cc(F)c2c1Nc1cncc(N2CCOCC2)c1", "note": "[1-(5,7-difluoro-3-methyl-4-((5-(4-morpholinyl)-3-pyridinyl)-amino)-2-quinolinyl)-L-proline]", "Ki": 9.37}
{"smiles": "Cc1c(N2CCC[C@@H]2C(=O)N(C)C)nc2cc(F)cc(F)c2c1Nc1cncc(N2CCOCC2)c1", "note": "[1-(5,7-difluoro-3-methyl-4-((5-(4-morpholinyl)-3-pyridinyl)-amino)-2-quinolinyl)-N,N-dimethyl-D-prolinamide]", "Ki": 10.3}
{"smiles": "CNC(=O)[C@H]1CCCN1c1nc2cc(F)cc(F)c2c(Nc2cncc(N3CCOCC3)c2)c1C", "note": "[1-(5,7-difluoro-3-methyl-4-((5-(4-morpholinyl)-3-pyridinyl)-amino)-2-quinolinyl)-N-methyl-D-prolinamide]", "Ki": 10.4}
{"smiles": "Cc1c(-c2ccc(N3CCC(O)C3)nc2)nc2cc(F)cc(F)c2c1Nc1cc(N2CCOCC2)cnc1N1CCOCC1", "note": "(stereo not drawn) [1-(5-(4-((2,5-di-4-morpholinyl-3-pyridinyl)amino)-5,7-difluoro-3-methyl-2-quinolinyl)-2-pyridinyl)-3-pyrrolidinol]", "Ki": 36.3}
{"smiles": "Cc1c(N2CCN(C(=O)OC(C)C)CC2)nc2cc(F)cc(F)c2c1Nc1cncc(N2CCOCC2)c1", "note": "[1-methylethyl 4-(5,7-difluoro-3-methyl-4-((5-(4-morpholinyl)-3-pyridinyl)amino)-2-quinolinyl)-1-piperazinecarboxylate]", "Ki": 38.8}
{"smiles": "Cc1c(N2CCN(C(=O)OCC(C)(C)C)CC2)nc2cc(F)cc(F)c2c1Nc1cncc(N2CCOCC2)c1", "note": "[2,2-dimethylpropyl 4-(5,7-difluoro-3-methyl-4-((5-(4-morpholinyl)-3-pyridinyl)amino)-2-quinolinyl)-1-piperazinecarboxylate]", "Ki": 99}
{"smiles": "Cc1cccc(-c2nc3cc(F)cc(F)c3c(Nc3cc(N4CCOCC4)cnc3N3CCOCC3)c2C)c1C", "note": "[2-(2,3-dimethylphenyl)-N-(2,5-di-4-morpholinyl-3-pyridinyl)-5,7-difluoro-3-methyl-4-quinolinamine]", "Ki": 12.9}
{"smiles": "Cc1c(-c2ccc(C(F)(F)F)cc2C(F)(F)F)nc2cc(F)cc(F)c2c1Nc1cc(N2CCOCC2)cnc1N1CCOCC1", "note": "[2-(2,4-bis(trifluoromethyl)phenyl)-N-(2,5-di-4-morpholinyl-3-pyridinyl)-5,7-difluoro-3-methyl-4-quinolinamine]", "Ki": 344}
{"smiles": "Cc1ccc(-c2nc3cc(F)cc(F)c3c(Nc3cc(N4CCOCC4)cnc3N3CCOCC3)c2C)c(C)c1", "note": "[2-(2,4-dimethylphenyl)-N-(2,5-di-4-morpholinyl-3-pyridinyl)-5,7-difluoro-3-methyl-4-quinolinamine]", "Ki": 26.8}
{"smiles": "Cc1ccc(-c2nc3cc(F)cc(F)c3c(Nc3cc(N4CCOCC4)cnc3N3CCOCC3)c2C)cc1C", "note": "[2-(3,4-dimethylphenyl)-N-(2,5-di-4-morpholinyl-3-pyridinyl)-5,7-difluoro-3-methyl-4-quinolinamine]", "Ki": 101}
{"smiles": "Cc1c(-c2cc(F)cc(F)c2)nc2ncccc2c1Nc1cc(N2CCOCC2)ccc1N1CCOCC1", "note": "[2-(3,5-difluorophenyl)-N-(2,5-di-4-morpholinylphenyl)-3-methyl-1,8-naphthyridin-4-amine]", "Ki": 582}
{"smiles": "Cc1c(N2CCN(CC(C)(C)C)CC2)nc2cc(F)cc(F)c2c1Nc1cncc(N2CCOCC2)c1", "note": "[2-(4-(2,2-dimethylpropyl)-1-piperazinyl)-5,7-difluoro-3-methyl-N-(5-(4-morpholinyl)-3-pyridinyl)-4-quinolinamine]", "Ki": 98.8}
{"smiles": "Cc1c(N2CCN(C(=O)C3CCCC3)CC2)nc2cc(F)cc(F)c2c1Nc1cncc(N2CCOCC2)c1", "note": "[2-(4-(cyclopentylcarbonyl)-1-piperazinyl)-5,7-difluoro-3-methyl-N-(5-(4-morpholinyl)-3-pyridinyl)-4-quinolinamine]", "Ki": 42}
{"smiles": "Cc1c(N2CCN(S(=O)(=O)C3CCCC3)CC2)nc2cc(F)cc(F)c2c1Nc1cncc(N2CCOCC2)c1", "note": "[2-(4-(cyclopentylsulfonyl)-1-piperazinyl)-5,7-difluoro-3-methyl-N-(5-(4-morpholinyl)-3-pyridinyl)-4-quinolinamine]", "Ki": 51}
{"smiles": "CCS(=O)(=O)N1CCN(c2nc3cc(F)cc(F)c3c(Nc3cncc(N4CCOCC4)c3)c2C)CC1", "note": "[2-(4-(ethylsulfonyl)-1-piperazinyl)-5,7-difluoro-3-methyl-N-(5-(4-morpholinyl)-3-pyridinyl)-4-quinolinamine]", "Ki": 88.4}
{"smiles": "CC(=O)N1CCN(c2nc3cc(F)cc(F)c3c(Nc3cncc(N4CCOCC4)c3)c2C)CC1", "note": "[2-(4-acetyl-1-piperazinyl)-5,7-difluoro-3-methyl-N-(5-(4-morpholinyl)-3-pyridinyl)-4-quinolinamine]", "Ki": 33.6}
{"smiles": "Cc1c(-c2cc(Cl)ccn2)nc2cc(F)cc(F)c2c1Nc1cc(N2CCOCC2)cnc1N1CCOCC1", "note": "[2-(4-chloro-2-pyridinyl)-N-(2,5-di-4-morpholinyl-3-pyridinyl)-5,7-difluoro-3-methyl-4-quinolinamine]", "Ki": 4.37}
{"smiles": "Cc1c(N2CCN(C3CCCCC3)CC2)nc2cc(F)cc(F)c2c1Nc1cncc(N2CCOCC2)c1", "note": "[2-(4-cyclohexyl-1-piperazinyl)-5,7-difluoro-3-methyl-N-(5-(4-morpholinyl)-3-pyridinyl)-4-quinolinamine]", "Ki": 28.4}
{"smiles": "CCN1CCN(c2nc3cc(F)cc(F)c3c(Nc3cncc(N4CCOCC4)c3)c2C)CC1", "note": "[2-(4-ethyl-1-piperazinyl)-5,7-difluoro-3-methyl-N-(5-(4-morpholinyl)-3-pyridinyl)-4-quinolinamine]", "Ki": 15.3}
{"smiles": "Cc1c(-c2cncc(Cl)c2)nc2cc(F)cc(F)c2c1Nc1cc(N2CCOCC2)cnc1N1CCOCC1", "note": "[2-(5-chloro-3-pyridinyl)-N-(2,5-di-4-morpholinyl-3-pyridinyl)-5,7-difluoro-3-methyl-4-quinolinamine]", "Ki": 11.2}
{"smiles": "Cc1c(-c2ccc(N3CCC(F)(F)CC3)nc2)nc2cc(F)cc(F)c2c1Nc1cc(N2CCOCC2)cnc1N1CCOCC1", "note": "[2-(6-(4,4-difluoro-1-piperidinyl)-3-pyridinyl)-N-(2,5-di-4-morpholinyl-3-pyridinyl)-5,7-difluoro-3-methyl-4-quinolinamine]", "Ki": 43.5}
{"smiles": "Cc1c(-c2ccc(N3CC[C@@H](N(C)C)C3)nc2)nc2cc(F)cc(F)c2c1Nc1cc(N2CCOCC2)cnc1N1CCOCC1", "note": "[2-(6-((3R)-3-(dimethylamino)-1-pyrrolidinyl)-3-pyridinyl)-N-(2,5-di-4-morpholinyl-3-pyridinyl)-5,7-difluoro-3-methyl-4-quinolinamine]", "Ki": 28.4}
{"smiles": "Cc1c(-c2ccc(OCC3CC3)nc2)nc2cc(F)cc(F)c2c1Nc1cc(N2CCOCC2)cnc1N1CCOCC1", "note": "[2-(6-(cyclopropylmethoxy)-3-pyridinyl)-N-(2,5-di-4-morpholinyl-3-pyridinyl)-5,7-difluoro-3-methyl-4-quinolinamine]", "Ki": 47.6}
{"smiles": "Cc1c(-c2ccc(N(C)C)nc2)nc2cc(F)cc(F)c2c1Nc1cncc(N2CCOCC2)c1", "note": "[2-(6-(dimethylamino)-3-pyridinyl)-5,7-difluoro-3-methyl-N-(5-(4-morpholinyl)-3-pyridinyl)-4-quinolinamine]", "Ki": 180}
{"smiles": "Cc1c(-c2ccc(N(C)C)nc2)nc2cc(F)cc(F)c2c1Nc1cc(N2CCOCC2)cnc1N1CCOCC1", "note": "[2-(6-(dimethylamino)-3-pyridinyl)-N-(2,5-di-4-morpholinyl-3-pyridinyl)-5,7-difluoro-3-methyl-4-quinolinamine]", "Ki": 24.4}
{"smiles": "CCOc1ccc(-c2nc3cc(F)cc(F)c3c(Nc3cncc(N4CCOCC4)c3)c2C)cn1", "note": "[2-(6-ethoxy-3-pyridinyl)-5,7-difluoro-3-methyl-N-(5-(4-morpholinyl)-3-pyridinyl)-4-quinolinamine]", "Ki": 291}
{"smiles": "Cc1c(N2CCN(C(=O)OCC(C)C)CC2)nc2cc(F)cc(F)c2c1Nc1cncc(N2CCOCC2)c1", "note": "[2-methylpropyl 4-(5,7-difluoro-3-methyl-4-((5-(4-morpholinyl)-3-pyridinyl)amino)-2-quinolinyl)-1-piperazinecarboxylate]", "Ki": 108}
{"smiles": "Cc1c(-c2cc(O)ccc2S(C)(=O)=O)nc2cc(F)ccc2c1Nc1cc(N2CCOCC2)cnc1N1CCOCC1", "note": "[3-(4-((2,5-di-4-morpholinyl-3-pyridinyl)amino)-7-fluoro-3-methyl-2-quinolinyl)-4-(methylsulfonyl)phenol]", "Ki": 17.5}
{"smiles": "Cc1c(-c2ccccn2)nc2cc(F)cc(F)c2c1Nc1cc(C#N)cc(N2CCOCC2)c1", "note": "[3-((5,7-difluoro-3-methyl-2-(2-pyridinyl)-4-quinolinyl)amino)-5-(4-morpholinyl)benzonitrile]", "Ki": 7.97}
{"smiles": "Cc1ccnc(-c2nc3c(C#N)cccc3c(Nc3cncc(N4CCOCC4)c3)c2C)c1", "note": "[3-methyl-2-(4-methyl-2-pyridinyl)-4-((5-(4-morpholinyl)-3-pyridinyl)amino)-8-quinolinecarbonitrile]", "Ki": 57.3}
